pIC50: −log10 of the molar value.
Tests used:
PDE2A = PDE2A (Homo sapiens, UniProt O00408); experiment: PDE 2A assay with fluorescent substrate (IMAP, fluorescence polarization); type: biochemical; conditions: read-out: PDE2 IC50
PDE10 = PDE10 (Homo sapiens, UniProt Q9Y233); experiment: PDE10 assay with fluorescent substrate (IMAP, fluorescence polarization); type: biochemical
Chain of PDE10 (Q9Y233 whole entry, species assumed): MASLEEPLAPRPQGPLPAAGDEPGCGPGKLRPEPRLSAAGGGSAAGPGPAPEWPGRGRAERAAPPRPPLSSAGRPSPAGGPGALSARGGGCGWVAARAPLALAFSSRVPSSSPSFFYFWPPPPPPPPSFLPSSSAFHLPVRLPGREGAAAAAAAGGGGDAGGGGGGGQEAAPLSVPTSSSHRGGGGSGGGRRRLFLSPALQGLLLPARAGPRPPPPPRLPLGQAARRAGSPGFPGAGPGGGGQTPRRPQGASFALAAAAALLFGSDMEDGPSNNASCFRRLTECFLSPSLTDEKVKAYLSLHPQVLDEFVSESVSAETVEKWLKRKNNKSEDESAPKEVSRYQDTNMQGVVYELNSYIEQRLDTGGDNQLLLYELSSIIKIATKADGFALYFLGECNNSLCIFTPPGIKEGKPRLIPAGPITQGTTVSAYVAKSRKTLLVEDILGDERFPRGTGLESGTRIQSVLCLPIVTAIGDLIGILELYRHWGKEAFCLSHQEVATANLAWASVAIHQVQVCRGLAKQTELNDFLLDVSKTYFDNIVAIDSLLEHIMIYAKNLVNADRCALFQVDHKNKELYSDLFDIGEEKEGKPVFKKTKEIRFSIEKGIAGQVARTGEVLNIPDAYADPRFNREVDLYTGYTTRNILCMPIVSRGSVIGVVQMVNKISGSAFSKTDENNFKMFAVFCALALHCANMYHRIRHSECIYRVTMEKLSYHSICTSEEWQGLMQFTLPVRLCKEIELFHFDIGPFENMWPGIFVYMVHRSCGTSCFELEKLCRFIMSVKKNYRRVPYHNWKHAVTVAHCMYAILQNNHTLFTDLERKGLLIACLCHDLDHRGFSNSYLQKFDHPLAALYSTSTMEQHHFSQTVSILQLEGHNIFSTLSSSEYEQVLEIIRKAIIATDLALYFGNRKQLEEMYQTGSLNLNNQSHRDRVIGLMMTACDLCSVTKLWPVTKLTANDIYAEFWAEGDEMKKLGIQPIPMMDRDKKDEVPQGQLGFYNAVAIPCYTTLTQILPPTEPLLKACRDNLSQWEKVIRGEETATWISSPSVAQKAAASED

Chain of PDE2A (O00408 whole entry, species assumed): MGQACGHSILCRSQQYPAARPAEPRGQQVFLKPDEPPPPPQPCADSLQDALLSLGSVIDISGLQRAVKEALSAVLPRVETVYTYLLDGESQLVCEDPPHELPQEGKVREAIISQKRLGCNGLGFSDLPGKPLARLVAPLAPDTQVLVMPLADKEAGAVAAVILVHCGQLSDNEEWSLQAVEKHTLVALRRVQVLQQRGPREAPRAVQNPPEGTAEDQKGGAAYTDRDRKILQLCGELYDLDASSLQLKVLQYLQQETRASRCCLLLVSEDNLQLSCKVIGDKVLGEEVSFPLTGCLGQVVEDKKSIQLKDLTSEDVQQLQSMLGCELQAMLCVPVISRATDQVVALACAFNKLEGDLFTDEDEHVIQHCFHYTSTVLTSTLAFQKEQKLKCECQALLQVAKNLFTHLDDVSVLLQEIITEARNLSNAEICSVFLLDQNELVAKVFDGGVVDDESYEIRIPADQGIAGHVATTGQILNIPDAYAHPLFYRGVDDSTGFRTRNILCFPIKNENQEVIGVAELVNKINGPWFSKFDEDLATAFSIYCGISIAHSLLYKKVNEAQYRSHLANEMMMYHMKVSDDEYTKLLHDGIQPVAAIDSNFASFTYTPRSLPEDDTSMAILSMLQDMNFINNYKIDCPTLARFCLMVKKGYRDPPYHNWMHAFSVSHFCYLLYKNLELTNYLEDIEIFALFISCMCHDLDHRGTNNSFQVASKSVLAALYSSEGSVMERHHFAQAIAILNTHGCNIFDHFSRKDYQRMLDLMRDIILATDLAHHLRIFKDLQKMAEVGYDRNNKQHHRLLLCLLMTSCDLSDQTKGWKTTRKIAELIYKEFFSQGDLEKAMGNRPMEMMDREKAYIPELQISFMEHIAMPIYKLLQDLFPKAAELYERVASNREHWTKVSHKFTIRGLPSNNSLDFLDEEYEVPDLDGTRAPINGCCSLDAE

Row | Compound | pIC50 (PDE2A) | pIC50 (PDE10)
1 | Cc1nc2ccc(C(F)(F)F)nc2n2c(-c3cc(O)ccc3Cl)nnc12 [Example 12] | 8.05 | 7.36
2 | Cc1nc2cccnc2n2c(-c3cc(C4(O)CCOC4)ccc3Cl)nnc12 (stereo not drawn) [Example 74] | 6.88 | 5.63
3 | Cc1nc2ccc(C(C)C)nc2n2c(-c3cc(O)ccc3F)nnc12 [Example 8] | 8.70 | 8.10
4 | Cc1ccc(O)cc1-c1nnc2c(C)nc3ccc(C(F)(F)F)nc3n12 [Example 12a] | 7.44 | 6.77
5 | Cc1nc2cccnc2n2c(-c3cc(CCC(C)(C)O)ccc3F)nnc12 [Example 65] | – | 5.45
6 | Cc1nc2ccc(C3CC3)nc2n2c(-c3cc(C4(O)CCOCC4O)ccc3F)nnc12 (racemic) [Example 105] | – | 5.81
7 | Cc1nc2ccc(C(C)C)nc2n2c(-c3cc(C4(O)CCC4)ccc3F)nnc12 [Example 92] | 8.70 | 6.26
8 | Cc1nc2ccc(C(F)(F)F)nc2n2c(-c3cc(C4(O)CCOCC4)ccc3Cl)nnc12 [Example 96] | 7.37 | –
9 | Cc1nc2ccc(C3CC3)nc2n2c(-c3cc(O)ccc3F)nnc12 [Example 5] | – | 8.30
10 | Cc1nc2ccc(C3CC3)nc2n2c(-c3cc(O)ccc3Cl)nnc12 [Example 9] | 9.00 | 7.82
11 | Cc1nc2cccnc2n2c(-c3cc(C4(O)CCOC4)ccc3Cl)nnc12 (single isomer, unassigned) [Example 98] | 6.86 | 5.81
12 | Cc1ccc2nc(C)c3nnc(-c4cc(C5(O)CCC5)ccc4F)n3c2n1 [Example 90] | 6.99 | 6.31
13 | Cc1nc2ccc(C3CC3)nc2n2c(-c3cc(C4(O)CCOC4)ccc3Cl)nnc12 (racemic) [Example 97] | 8.40 | –
14 | Cc1nc2ccc(C3CC3)nc2n2c(-c3cc(C(C)(C)CO)ccc3F)nnc12 [Example 101] | – | 5.95
15 | CCCC(O)c1ccc(Cl)c(-c2nnc3c(C)nc4ccc(C)nc4n23)c1 (stereo not drawn) [Example 61] | 8.40 | 6.27
16 | Cc1nc2ccc(C3CC3)nc2n2c(-c3cc(OC4COCC4O)ccc3Cl)nnc12 (racemic) [Example 56] | – | 7.21
17 | Cc1nc2ccc(C(C)C)nc2n2c(-c3cc(C(C)(C)O)ccc3Cl)nnc12 [Example 77] | – | 5.85
18 | Cc1ccc(C(C)(C)O)cc1-c1nnc2c(C)nc3cc(C(C)C)cnc3n12 [Example 79] | 6.84 | –
19 | Cc1ccc2nc(C)c3nnc(-c4cc(CO)ccc4Cl)n3c2n1 [Example 60] | – | 6.55

Second part, the compound after the results:

Row | pIC50 (PDE2A) | pIC50 (PDE10) | Compound
20 | – | 5.23 | Cc1nc2ccc(C3CC3)nc2n2c(-c3cc(C4(O)CCOC4)ccc3Cl)nnc12 (single isomer, unassigned) [Example 97a]
21 | 6.41 | < 5.00 | Cc1nc2ccc(C(F)(F)F)nc2n2c(-c3cc(OC4COCCC4O)ccc3F)nnc12 (single isomer, unassigned) [Example 110b]
22 | 7.96 | – | Cc1nc2ccc(C3CC3)nc2n2c(-c3cc(OC4COCCC4O)ccc3F)nnc12 (single isomer, unassigned) [Example 108a]
23 | – | 6.05 | Cc1nc2ccc(C3CC3)nc2n2c(-c3cc(C4(O)CCOC4)ccc3Cl)nnc12 (single isomer, unassigned) [Example 97b]
24 | – | 6.58 | Cc1nc2ccc(C3CC3)nc2n2c(-c3cc(OC4CCOCC4O)ccc3F)nnc12 (single isomer, unassigned) [Example 108c]
25 | 7.06 | – | Cc1ccc(C2(O)CCOCC2)cc1-c1nnc2c(C)nc3ccc(C(F)(F)F)nc3n12 [Example 96b]
26 | 6.70 | – | Cc1nc2ccc(C(F)(F)F)nc2n2c(-c3cc(C4(O)CCOCC4)ccc3F)nnc12 [Example 96a]
27 | – | 6.20 | Cc1nc2ccc(C3CC3)nc2n2c(-c3cc(OC4CCOCC4O)ccc3F)nnc12 (single isomer, unassigned) [Example 108d]
28 | – | 5.13 | Cc1nc2ccc(C(F)(F)F)nc2n2c(-c3cc(C4(O)CCOC4)ccc3F)nnc12 (stereo not drawn) [Example 96c]
29 | 6.33 | – | Cc1nc2ccc(C(F)(F)F)nc2n2c(-c3cc(OC4CCOCC4O)ccc3F)nnc12 (single isomer, unassigned) [Example 110d]

Reference: US20140045856A1, “4-Methyl-2,3,5,9,9b-pentaaza-cyclopenta[a]naphthalenes” (BOEHRINGER INGELHEIM INTERNATIONAL GMBH, priority 2012, published 2014)
